Experiments:
Format in all cases: in vivo
[1] = test system: Diabrotica Balteata (Corn Root Worm); test: Activity against Diabrotica balteata, sprayed maize sprouts; conditions: 96 h, application rate of 200 ppm, L2 larvae, 4 days after infestation, read-out: effect in at least one of the two categories (mortality or growth inhibition)
Description: Maize sprouts, placed on an agar layer in 24-well microtiter plates were treated with aqueous test solutions prepared from 10,000 ppm DMSO stock solutions by spraying. After drying, the plates were infested with L2 larvae (6 to 10 per well). The samples were assessed for mortality and growth inhibition in comparison to untreated samples 4 days after infestation.

[2] = test system: Spodoptera littoralis (Egyptian Cotton Leaf Worm); test: Activity against Spodoptera littoralis, sprayed cotton leaf discs; conditions: foliar, 72 h, application rate of 200 ppm, L1 larvae, 3 days after infestation, read-out: control (at least one of mortality, anti-feedant effect, and growth inhibition)
Description: Cotton leaf discs were placed on agar in 24-well microtiter plates and sprayed with aqueous test solutions prepared from 10,000 ppm DMSO stock solutions. After drying the leaf discs were infested with five L1 larvae. The samples were assessed for mortality, anti-feedant effect, and growth inhibition in comparison to untreated samples 3 days after infestation. Control of Spodoptera littoralis by a test sample is when at least one of mortality, anti-feedant effect, and growth inhibition is higher than the untreated sample.

[3] = test system: Frankliniella occidentalis (Western Flower Thrips); test: Activity against Frankliniella occidentalis, sprayed sunflower leaf discs; conditions: foliar, 168 h, application rate of 200 ppm, population of mixed ages, 7 days after infestation
Description: Sunflower leaf discs were placed on agar in 24-well microtiter plates and sprayed with aqueous test solutions prepared from 10,000 DMSO stock solutions. After drying the leaf discs were infested with a Frankliniella population of mixed ages. The samples were assessed for mortality 7 days after infestation.

[4] = test system: Euschistus heros(Neotropical Brown Stink Bug); test: Activity against Euschistus heros, sprayed soybean leaf; conditions: 120 h, application rate of 200 ppm, N-2 nymphs, 5 days after infestation, read-out: effect in at least one of the two categories (mortality or growth inhibition)
Description: Soybean leaf on agar in 24-well microtiter plates were sprayed with aqueous test solutions prepared from 10,000 ppm DMSO stock solutions. After drying the leaf were infested with N-2 nymphs. The samples were assessed for mortality and growth inhibition in comparison to untreated samples 5 days after infestation.

[5] = test system: Myzus persicae (Green Peach Aphid); test: Activity against Myzus persicae, sprayed sunflower leaf discs; conditions: foliar, 144 h, application rate of 200 ppm, aphid population of mixed ages, 6 days after infestation
Description: Sunflower leaf discs were placed on agar in a 24-well microtiter plate and sprayed with aqueous test solutions prepared from 10,000 ppm DMSO stock solutions. After drying, the leaf discs were infested with an aphid population of mixed ages. The samples were assessed for mortality 6 days after infestation.

[6] = test system: Plutella xylostella (Diamond Back Moth); test: Activity against Plutella xylostella, treated artificial diet; conditions: 120 h, application rate of 200 ppm, L2 larvae, 5 days after infestation, read-out: effect in at least one of the two categories (mortality or growth inhibition)
Description: 24-well microtiter plates with artificial diet were treated with aqueous test solutions prepared from 10,000 ppm DMSO stock solutions by pipetting. After drying, the plates were infested with L2 larvae (10 to 15 per well). The samples were assessed for mortality and growth inhibition in comparison to untreated samples 5 days after infestation.

[7] = test system: Myzus persicae (Green Peach Aphid); test: Activity against Myzus persicae, systemic via roots of pea seedlings; conditions: 144 h, test rate of 24 ppm, roots of pea seedlings in test solution, 6 days
Description: Roots of pea seedlings infested with an aphid population of mixed ages were placed directly in the aqueous test solutions prepared from 10,000 DMSO stock solutions. The samples were assessed for mortality 6 days after placing seedlings in test solutions.

[8] = test system: Spodoptera littoralis (Egyptian Cotton Leaf Worm); test: Activity against Spodoptera littoralis, systemic via lettuce grown on treated agar; conditions: 144 h, test rate of 12.5 ppm, root uptake by lettuce, 6 days after infestation, read-out: effect in at least one of the three categories (mortality, anti-feedancy, or growth inhibition)
From the text: Test compounds were applied by pipette from 10,000 ppm DMSO stock solutions into 24-well plates and mixed with agar. Lettuce seeds were placed on the agar and the multi well plate was closed by another plate which contains also agar. After 7 days the roots have absorbed the compound and the lettuce has grown into the lid plate. The lettuce leafs were now cut off into the lid plate. Spodoptera eggs were pipetted through a plastic stencil on a humid gel blotting paper and the plate closed with it. The samples were assessed for mortality, anti-feedant effect and growth inhibition in comparison to untreated samples 6 days after infestation.

CCSc1cc(-c2ccc(Cl)cc2)cnc1-c1nnc(-c2cc(C(F)(F)F)ccn2)n1C [Compound P1, 5-(4-chlorophenyl)-3-ethylsulfanyl-2-[4-methyl-5-[4-(trifluoromethyl)-2-pyridyl]-1,2,4-triazol-3-yl]pyridine]
≥ 80%: percent effect (mortality or growth inhibition) at 200 ppm [1] | mortality at 200 ppm [2]

CCS(=O)(=O)c1cc(-c2ccc(Cl)cc2)cnc1-c1nnc(-c2cc(C(F)(F)F)ccn2)n1C [Compound P2, 5-(4-chlorophenyl)-3-ethylsulfonyl-2-[4-methyl-5-[4-(trifluoromethyl)-2-pyridyl]-1,2,4-triazol-3-yl]pyridine]
≥ 80%: percent effect (mortality or growth inhibition) at 200 ppm [1] | mortality at 200 ppm [2]

CCSc1cc(-n2cccn2)cnc1-c1nnc(-c2cc(C(F)(F)F)ccn2)n1C [Compound P3, 3-ethylsulfanyl-2-[4-methyl-5-[4-(trifluoromethyl)-2-pyridyl]-1,2,4-triazol-3-yl]-5-pyrazol-1-yl-pyridine]
≥ 80%: mortality at 200 ppm [3] | percent effect (mortality or growth inhibition) at 200 ppm [4]

CCS(=O)(=O)c1cc(-n2cccn2)cnc1-c1nnc(-c2cc(C(F)(F)F)ccn2)n1C [Compound P4, 3-ethylsulfonyl-2-[4-methyl-5-[4-(trifluoromethyl)-2-pyridyl]-1,2,4-triazol-3-yl]-5-pyrazol-1-yl-pyridine]
≥ 80%: mortality at 200 ppm [2] | mortality at 200 ppm [5] | percent effect (mortality or growth inhibition) at 200 ppm [4]

CCSc1cc(-n2cc(C(F)(F)F)cn2)cnc1-c1nnc(-c2cc(C(F)(F)F)ccn2)n1C [Compound P5]
≥ 80%: percent effect (mortality or growth inhibition) at 200 ppm [1]

CCSc1cc(-c2ncccn2)cnc1-c1nnc(-c2cc(C(F)(F)F)ccn2)n1C [Compound P8]
≥ 80%: mortality at 200 ppm [3] | percent effect (mortality or growth inhibition) at 200 ppm [6] | percent effect (mortality or growth inhibition) at 200 ppm [1]

CCS(=O)(=O)c1cc(-c2ccc(C(F)(F)F)cc2)cnc1-c1nnc(-c2cc(C(F)(F)F)ccn2)n1C [Compound P11]
≥ 80%: percent effect (mortality or growth inhibition) at 200 ppm [6] | percent effect (mortality or growth inhibition) at 200 ppm [1] | mortality at 200 ppm [2] | mortality at 200 ppm [5] | percent effect (mortality or growth inhibition) at 200 ppm [4]

C=Cc1cnc(-c2nnc(-c3cc(C(F)(F)F)ccn3)n2C)c(S(=O)(=O)CC)c1 [Compound P12, 3-ethylsulfonyl-2-[4-methyl-5-[4-(trifluoromethyl)-2-pyridyl]-1,2,4-triazol-3-yl]-5-vinyl-pyridine]
≥ 80%: mortality at 24 ppm [7] | mortality at 200 ppm [5]

CCS(=O)(=O)c1cc(-n2ccc(C#N)n2)cnc1-c1nnc(-c2cc(C(F)(F)F)ccn2)n1C [Compound P16]
≥ 80%: percent effect (mortality or growth inhibition) at 200 ppm [6] | percent effect (mortality or growth inhibition) at 200 ppm [1] | mortality at 200 ppm [2] | percent control (mortality, anti-feedancy or growth inhibition) at 12.5 ppm [8] | mortality at 200 ppm [5]

CCS(=O)(=O)c1cc(-c2ncc(Cl)cn2)cnc1-c1nnc(-c2cc(C(F)(F)F)ccn2)n1C [Compound P18]
≥ 80%: percent effect (mortality or growth inhibition) at 200 ppm [1] | mortality at 200 ppm [2]

CCS(=O)(=O)c1cc(-c2ncc(C#N)cn2)cnc1-c1nnc(-c2cc(C(F)(F)F)ccn2)n1C [Compound P20]
≥ 80%: percent effect (mortality or growth inhibition) at 200 ppm [6] | percent effect (mortality or growth inhibition) at 200 ppm [1] | mortality at 200 ppm [2] | percent control (mortality, anti-feedancy or growth inhibition) at 12.5 ppm [8] | mortality at 200 ppm [5] | percent effect (mortality or growth inhibition) at 200 ppm [4]

CCS(=O)(=O)c1cc(-c2cccc(C#N)n2)cnc1-c1nnc(-c2cc(C(F)(F)F)ccn2)n1C [Compound P21]
≥ 80%: mortality at 200 ppm [3] | percent effect (mortality or growth inhibition) at 200 ppm [6] | percent effect (mortality or growth inhibition) at 200 ppm [1] | mortality at 200 ppm [2] | percent control (mortality, anti-feedancy or growth inhibition) at 12.5 ppm [8] | mortality at 200 ppm [5] | percent effect (mortality or growth inhibition) at 200 ppm [4]

CCS(=O)(=O)c1cc(-c2cccc(Cl)n2)cnc1-c1nnc(-c2cc(C(F)(F)F)ccn2)n1C [Compound P24, 5-(6-chloro-2-pyridyl)-3-ethylsulfonyl-2-[4-methyl-5-[4-(trifluoromethyl)-2-pyridyl]-1,2,4-triazol-3-yl]pyridine]
≥ 80%: percent effect (mortality or growth inhibition) at 200 ppm [6] | percent effect (mortality or growth inhibition) at 200 ppm [1] | mortality at 200 ppm [2] | percent effect (mortality or growth inhibition) at 200 ppm [4]

CCS(=O)(=O)c1cc(-n2ccc(Cl)n2)cnc1-c1nnc(-c2cc(C(F)(F)F)ccn2)n1C [Compound P28]
≥ 80%: mortality at 200 ppm [3] | percent effect (mortality or growth inhibition) at 200 ppm [6] | percent effect (mortality or growth inhibition) at 200 ppm [1] | mortality at 200 ppm [2] | percent control (mortality, anti-feedancy or growth inhibition) at 12.5 ppm [8] | mortality at 200 ppm [5] | percent effect (mortality or growth inhibition) at 200 ppm [4]

CCS(=O)(=O)c1cc(SC(F)(F)F)cnc1-c1nnc(-c2cc(C(F)(F)F)ccn2)n1C [Compound P34, 3-ethylsulfonyl-2-[4-methyl-5-[4-(trifluoromethyl)-2-pyridyl]-1,2,4-triazol-3-yl]-5-(trifluoromethylsulfanyl)pyridine]
≥ 80%: percent effect (mortality or growth inhibition) at 200 ppm [1] | mortality at 200 ppm [5]

CCS(=O)(=O)c1cc(S(=O)(=O)C(F)(F)F)cnc1-c1nnc(-c2cc(C(F)(F)F)ccn2)n1C [Compound P35, 3-ethylsulfonyl-2-[4-methyl-5-[4-(trifluoromethyl)-2-pyridyl]-1,2,4-triazol-3-yl]-5-(trifluoromethylsulfonyl)pyridine]
≥ 80%: percent effect (mortality or growth inhibition) at 200 ppm [6] | percent effect (mortality or growth inhibition) at 200 ppm [1] | mortality at 200 ppm [2]

CCS(=O)(=O)c1cc([S+]([O-])C(F)(F)F)cnc1-c1nnc(-c2cc(C(F)(F)F)ccn2)n1C (stereo not drawn) [Compound P36, 3-ethylsulfonyl-2-[4-methyl-5-[4-(trifluoromethyl)-2-pyridyl]-1,2,4-triazol-3-yl]-5-(trifluoromethylsulfinyl)pyridine]
≥ 80%: mortality at 24 ppm [7] | percent effect (mortality or growth inhibition) at 200 ppm [1]

CCS(=O)(=O)c1ccc(C2CC2)nc1-c1nnc(-c2cc(C(F)(F)F)ccn2)n1C [Compound P38]
≥ 80%: percent effect (mortality or growth inhibition) at 200 ppm [6] | percent effect (mortality or growth inhibition) at 200 ppm [1] | mortality at 200 ppm [2]

CCS(=O)(=O)c1ccc(-c2cccc(F)c2)nc1-c1nnc(-c2cc(C(F)(F)F)ccn2)n1C [Compound P50, 3-ethylsulfonyl-6-(3-fluorophenyl)-2-[4-methyl-5-[4-(trifluoromethyl)-2-pyridyl]-1,2,4-triazol-3-yl]pyridine]
≥ 80%: mortality at 200 ppm [3] | percent effect (mortality or growth inhibition) at 200 ppm [6] | percent effect (mortality or growth inhibition) at 200 ppm [1] | mortality at 200 ppm [2] | percent control (mortality, anti-feedancy or growth inhibition) at 12.5 ppm [8] | mortality at 200 ppm [5] | percent effect (mortality or growth inhibition) at 200 ppm [4]

CCS(=O)(=O)c1cc(-c2cccc(F)c2)cnc1-c1nnc(-c2cc(C(F)(F)F)ncn2)n1C [Compound P52]
≥ 80%: mortality at 200 ppm [3] | percent effect (mortality or growth inhibition) at 200 ppm [6] | percent effect (mortality or growth inhibition) at 200 ppm [1] | mortality at 200 ppm [2] | percent control (mortality, anti-feedancy or growth inhibition) at 12.5 ppm [8] | mortality at 200 ppm [5] | percent effect (mortality or growth inhibition) at 200 ppm [4]

CCS(=O)(=O)c1cc(-c2cccc(F)c2)cnc1-c1nnc(-c2cc(C(F)(F)F)ccn2)n1C [Compound P53]
≥ 80%: percent effect (mortality or growth inhibition) at 200 ppm [6] | percent effect (mortality or growth inhibition) at 200 ppm [1] | mortality at 200 ppm [2]

Reference: patent publication US10292391B2, “Pesticidally active 1,2,4-triazole derivatives with sulphur containing substituents” (Syngenta Participations AG, priority 2015, dated 2019)
